What was measured:
[1] = system: human large cell lung cancer cell line LU99; test: Efficacy in LU99 xenograft mouse model; type: in vivo, Balb/c nude mice; settings: PO, qd, 28 days
Description: The human large cell lung cancer cell line LU99 was purchased from Nanjing Cobioer Biosciences Co., Ltd. (CBP61512) and cultured in RPMI-1640 medium (Gibco) containing 10% fetal bovine serum (Gibco); the test substances were prepared into suspensions at concentrations of 0.3 mg/mL, 1 mg/mL, and 5 mg/mL using a 0.5% aqueous MC solution containing 0.2% Tween 80. Reference Example 6 (MRTX1719) was prepared into a 5 mg/mL clear solution using 40% PEG400 normal saline containing 2% DMSO.
LU99 cells in the logarithmic growth phase were digested, collected, and counted, and the cell density was adjusted to 2 × 10^7 cells/mL using a 1:1 serum-free medium and matrigel (Corning). 18-20 g of Balb/c nude mice (Beijing Huafukang Biotechnology Co., Ltd.) were inoculated subcutaneously with 100 µL of cell suspension per mouse. On day 12 after inoculation, animals with a mean tumor volume of 116 mm^3 were randomly grouped, with 7 animals in each group. The test substances were intragastrically administered at 3 mg/kg, 10 mg/kg, and 50 mg/kg once daily, and MRTX1719 was intragastrically administered at 50 mg/kg once daily. A vehicle (2% DMSO + 40% PEG400 + 58% normal saline) was intragastrically administered to the blank group at a dose of 10 mL/kg once daily. Administration was performed for 28 days in total.
After the animals were inoculated with LU99 cells, the tumor volume was measured 2-3 times a week, and the tumor volume was calculated based on length × width^2 × 0.5. On the day when the last administration was completed, except for the mice with tumor regression, which were subjected to discontinuation observation, the remaining mice were euthanized.
In the formula, VTt represents the tumor volume of the treatment group at each measurement, and VT0 represents the tumor volume measured when the treatment group is grouped; VCt represents the tumor volume of the model control group at each measurement, and VC0 represents the tumor volume measured when the model control group is grouped.
Data were analyzed using GraphPad Prism 9.0 software and expressed as Mean ± SEM (standard error). Pairwise comparisons between each administration group and the model control group were performed using one-way analysis of variance (ANOVA). Variance homogeneity was determined using the Brown-Forsythe method, and variance heterogeneity was determined using the Dunnett's T3 method. Table 8. Efficacy evaluation in LU99 xenograft mouse model

[2] = system: gene-editing MTAP-/- human colon cancer cell strain HCT116; test: Efficacy in MTAP-/- HCT116 subcutaneous xenograft mouse model; type: in vivo, Balb/c nude mice; settings: 10 mg/kg, PO, qd, 28 days
Description: The blank group contained 40% PEG400 normal saline with 2% DMSO. […] The test substance was intragastrically administered at 10 mg/kg once daily, and MRTX1719 was intragastrically administered at 50 mg/kg once daily. Model control: The vehicle (2% DMSO + 40% PEG400 + 58% normal saline) was intragastrically administered at a dose of 10 mL/kg once daily. Administration was performed for 28 days in total. […] The mice were euthanized on the day when the last administration was completed. […] In the formula, VTt represents the tumor volume of the treatment group at each measurement, and VT0 represents the tumor volume measured when the treatment group is grouped; VCt represents the tumor volume of the vehicle group at each measurement (same as VTt), and VC0 represents the tumor volume measured when the vehicle group is grouped. Data were analyzed using GraphPad Prism 9.0 software and expressed as Mean ± SEM (standard error). Pairwise comparisons between each administration group and the control group were performed using one-way analysis of variance (ANOVA). Variance homogeneity was determined using the Brown-Forsythe method, and variance heterogeneity was determined using the Dunnett's T3 method. Table 7. Efficacy evaluation in HCT116 subcutaneous xenograft mouse model

| SMILES | TGI ([1]; 3 mg/kg) [%] | Tumor volume ([1]; 3 mg/kg) [mm^3] | TGI ([1]; 10 mg/kg) [%] | Tumor volume ([1]; 10 mg/kg) [mm^3] | TGI ([1]; 50 mg/kg) [%] | Tumor volume ([1]; 50 mg/kg) [mm^3] | TGI [2] [%] | Tumor volume [2] [mm^3] |
| --- | --- | --- | --- | --- | --- | --- | --- | --- |
| CN(C(=O)c1cc2c(cc1F)nc(N)c1cnn(C)c12)[C@@H]1COc2cc(C#Cc3cnn(C)c3)ccc21 [Compound 5A, (S)-4-amino-7-fluoro-N,1-dimethyl-N-(6-((1-methyl-1H-pyrazol-4-yl)ethynyl)-2,3-dihydrobenzofuran-3-yl)-1H-pyrazolo[4,3-c]quinoline-8-carboxamide] | 81.96 | 438.73 | 95.20 | 202.05 | 103.12 | 60.72 | 82.25 | 378.72 |
| CN(C(=O)c1cc2c3c(c(N)nc2cc1Cl)COC3)[C@@H]1COc2cc(C#Cc3cnn(C4CC4)c3)ccc21 [Compound 43A, (S)-4-amino-7-chloro-N-(6-((1-cyclopropyl-1H-pyrazol-4-yl)ethynyl)-2,3-dihydrobenzofuran-3-yl)-N-methyl-1,3-dihydrofuro[3,4-c]quinoline-8-carboxamide] | 83.27 | 415.58 | 94.77 | 210.31 | 104.92 | 28.13 |  |  |
